Target: T1, human DPP-IV (Homo sapiens, UniProt P27487)
T1 construct: made in house; host or cells: Pichia pastoris
Experiment: DPP-IV activity assay (fluorogenic or colorimetric substrate), IC50 determination
Format: biochemical
Conditions: natural human DPP-IV from human plasma pool or recombinant human DPP-IV; 37° C., pH 7.8
Experimental: Activity of DPP-IV inhibitors are tested with natural human DPP-IV derived from a human plasma pool or with recombinat human DPP-IV. Human citrate plasma from different donors is pooled, filterted through a 0.2 micron membrane under sterile conditions and aliquots of 1 ml are shock frozen and stored at −120° C. until used. In the calorimetric DPP-IV assay 5 to 10 μl human plasma and in the fluorometric assay 1.0 μl of human plasma in a total assay volume of 100 μl is used as an enzyme source. […] Human DPP-IV is expressed and purified from the cultur medium using conventional column chromatography including size exclusion and anion and cation chromatography. […] In the calorimetric DPP-IV assay 20 ng rec.-h DPP-IV and in the fluorometric assay 2 ng rec-h DPP-IV in a total assay volume of 100 μl is used as an enzyme source.
A 20 mM stock solution in 10% DMF/H2O is stored at −20° C. until use.
A 10 mM stock solution in 10% MeOH/H2O is stored at −20° C. until use.
Fluorescence is detected in a Perkin Elmer Luminescence Spectrometer LS 50B at an excitation wavelength of 400 nm and an emission wavelength of 505 nm continuously every 15 seconds for 10 to 30 minutes. Initial rate constants are calculated by best fit linear regression.
Initial rate constants are calculated by best fit linear regression.
DPP-IV activity assays are performed in 96 well plates at 37° C. in a total assay volume of 100 μl. The assay buffer consists of 50 mM Tris/HCl pH 7.8 containing 0.1 mg/ml BSA and 100 mM NaCl. Test compounds are solved in 100% DMSO, diluted to the desired concentration in 10% DMSO/H2O. The final DMSO concentration in the assay is 1% (v/v). […] Compounds are with (10 minutes at 37° C.) and without preincubation with the enzyme. Enzyme reactions are started with substrate application follwed by immediate mixing.
Kinetic parameters of the enzyme reaction are calculated at at least 5 different substrate concentrations and at least 5 different test compound concentrations.

T1 sequence (P27487 31-766): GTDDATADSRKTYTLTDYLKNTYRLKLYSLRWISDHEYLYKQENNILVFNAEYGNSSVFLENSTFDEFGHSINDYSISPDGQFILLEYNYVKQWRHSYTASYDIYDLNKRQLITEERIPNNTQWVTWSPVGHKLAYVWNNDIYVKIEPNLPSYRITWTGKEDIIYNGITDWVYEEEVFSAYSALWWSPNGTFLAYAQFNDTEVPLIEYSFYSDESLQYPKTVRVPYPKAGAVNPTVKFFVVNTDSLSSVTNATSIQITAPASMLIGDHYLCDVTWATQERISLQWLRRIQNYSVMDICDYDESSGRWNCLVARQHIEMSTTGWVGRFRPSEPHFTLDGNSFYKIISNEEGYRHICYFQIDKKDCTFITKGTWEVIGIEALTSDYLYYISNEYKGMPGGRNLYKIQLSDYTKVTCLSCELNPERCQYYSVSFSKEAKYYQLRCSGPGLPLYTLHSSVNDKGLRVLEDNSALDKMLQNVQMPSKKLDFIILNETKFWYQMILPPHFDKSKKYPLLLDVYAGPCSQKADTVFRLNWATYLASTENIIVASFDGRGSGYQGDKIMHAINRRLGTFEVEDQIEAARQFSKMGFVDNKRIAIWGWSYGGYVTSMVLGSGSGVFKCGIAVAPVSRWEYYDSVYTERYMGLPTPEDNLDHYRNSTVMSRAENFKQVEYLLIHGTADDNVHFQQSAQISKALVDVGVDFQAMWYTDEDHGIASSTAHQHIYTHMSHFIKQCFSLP

| IC50 | SMILES |
| --- | --- |
| 7 nM | CC(C)(CNc1ccc(-c2cccc(C(F)(F)F)c2)cn1)NCC(=O)N1CCC[C@H]1C#N [Example 119, (2S)-1-({1,1-Dimethyl-2-[5-(3-trifluoromethyl-phenyl)-pyridin-2-ylamino]-ethylamino}-acetyl)-pyrrolidine-2-carbonitrile] |
| 1 nM | CC(C)(CNc1cccc(-c2ccccc2)n1)NCC(=O)N1CCC[C@H]1C#N [Example 129, (2S)-1-{[1,1-Dimethyl-2-(6-phenyl-pyridin-2-ylamino)-ethylamino]-acetyl}-pyrrolidine-2-carbonitrile] |
| 1 nM | Cc1cccc(-c2nc(CC(C)(C)NCC(=O)N3CCC[C@H]3C#N)c(C)[nH]2)c1 [Example 188, (2S)-1-{[1,1-Dimethyl-2-(5-methyl-2-m-tolyl-1H-imidazol-4-yl)-ethylamino]-acetyl}-pyrrolidine-2-carbonitrile] |

Second part, the compound before the results:

| SMILES | IC50 |
| --- | --- |
| Cc1c(C)n(C[C@H](C)NCC(=O)N2CCC[C@H]2C#N)c2ccccc12 [Example 7, (2S)-1-{[(1S)-2-(2,3-Dimethyl-indol-1-yl)-1-methyl-ethylamino]-acetyl}-pyrrolidine-2-carbonitrile] | 88 nM |
| COc1cc2c(C(=O)C(F)(F)F)cn(C[C@H](C)NCC(=O)N3CCC[C@H]3C#N)c2cc1OC [Example 23, (2S)-1-{[(1S)-2-(5,6-Dimethoxy-3-trifluoroacetyl-indol-1-yl)-1-methyl-ethylamino]-acetyl}-pyrrolidine-2-carbonitrile] | 128 nM |
